Assays:
[1] = target: T1, human recombinant Btk (Homo sapiens, UniProt Q06187); assay: Human recombinant Btk enzyme assay; type: biochemical; details: human recombinant Btk 1 nM, ATP 20 μM, 60 min room temperature
T1 construct: purchased Invitrogen Corporation
Protocol: Human Recombinant Btk Enzyme Assay
To V-bottom 384-well plates were added test compounds, human recombinant Btk (1 nM, Invitrogen Corporation), fluoresceinated peptide (1.5 μM), ATP (20 μM), and assay buffer (20 mM HEPES pH 7.4, 10 mM MgCl2, 0.015% Brij35 and 4 mM DTT in 1.6% DMSO), with a final volume of 30 μL. After incubating at room temperature for 60 min, the reaction was terminated by adding 45 μl of 35 mM EDTA to each sample. The reaction mixture was analyzed on the Caliper LABCHIP® 3000 (Caliper, Hopkinton, Mass.) by electrophoretic separation of the fluorescent substrate and phosphorylated product. Inhibition data were calculated by comparison to no enzyme control reactions for 100% inhibition and no inhibitor controls for 0% inhibition. Dose response curves were generated to determine the concentration required inhibiting 50% of kinase activity (IC50). Compounds were dissolved at 10 mM in dimethylsulfoxide (DMSO) and evaluated at eleven concentrations.

[2] = system: Ramos RA1 B cells; assay: Ramos FLIPR assay; type: cell-based; details: Homo sapiens, inhibition of peak intracellular calcium after F(ab')2 anti-IgM/IgG stimulation, read-out: Human Ramos Cell FLIPR (IC50 μM)
Protocol: Ramos RA1 B cells (ATCC® CRL-1596) at a density of 2×10^6 cells/ml in RPMI minus phenol red (Invitrogen 11835-030) and 50 mM HEPES (Invitrogen 15630-130) containing 0.1% BSA (Sigma A8577) were added to one half volume of calcium loading buffer (BD bulk kit for probenecid sensitive assays, #640177) and incubated at room temperature in the dark for 1 hour. Dye-loaded cells were pelleted (Beckmann GS-CKR, 1200 rpm, RT, 5 minutes) and resuspended in RT RPMI minus phenol red with 50 mM HEPES and 10% FBS to a density of 1×10^6 cells/ml. 150 μl aliquots (150,000/well) were plated into 96 well poly-D-lysine coated assay plates (BD 35 4640) and briefly centrifuged (Beckmann GS-CKR 800 rpm, 5 minutes, without brake). 50 μal compound dilutions in 0.4% DMSO/RPMI minus phenol red+50 mM HEPES+10% FBS were added to the wells and the plate was incubated at RT in the dark for 1 hour. Assay plate was briefly centrifuged as above prior to measuring calcium levels.
Using the FLIPR1 (Molecular devices), cells were stimulated by adding 50 μl 200 μg/ml F(ab′)2 anti-IgM/IgG (Jackson ImmunoResearch 109-006-127) diluted in 1×HBSS (Invitrogen 14025-076), 50 mM HEPES, 0.1% BSA. Changes in intracellular calcium concentrations were measured for 180 seconds and percent inhibition was determined relative to peak calcium levels seen in the presence of F(ab′)2 anti-IgM/IgG only.

T1 sequence (Q06187 whole entry): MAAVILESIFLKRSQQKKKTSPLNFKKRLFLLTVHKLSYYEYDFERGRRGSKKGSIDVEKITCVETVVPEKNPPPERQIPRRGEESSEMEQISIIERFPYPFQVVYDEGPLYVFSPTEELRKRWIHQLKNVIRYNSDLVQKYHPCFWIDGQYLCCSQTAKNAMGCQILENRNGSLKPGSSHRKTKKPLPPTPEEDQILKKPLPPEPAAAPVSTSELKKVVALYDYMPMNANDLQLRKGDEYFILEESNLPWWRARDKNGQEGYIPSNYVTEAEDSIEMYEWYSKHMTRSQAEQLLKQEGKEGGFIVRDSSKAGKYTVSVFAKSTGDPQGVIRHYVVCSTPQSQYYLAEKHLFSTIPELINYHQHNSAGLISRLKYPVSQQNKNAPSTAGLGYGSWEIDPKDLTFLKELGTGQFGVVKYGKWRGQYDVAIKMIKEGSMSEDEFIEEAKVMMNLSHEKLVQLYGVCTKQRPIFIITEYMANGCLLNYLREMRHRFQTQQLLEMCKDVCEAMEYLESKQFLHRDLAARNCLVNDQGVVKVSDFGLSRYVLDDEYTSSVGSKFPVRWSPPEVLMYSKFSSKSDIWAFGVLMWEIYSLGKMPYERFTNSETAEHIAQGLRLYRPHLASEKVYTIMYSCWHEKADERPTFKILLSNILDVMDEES

IC50 [1]: 46 nM
IC50 [2]: 0.028 µM
Compound: Cc1c(NC(=O)c2ccc(C(C)(C)C)cc2)cccc1-c1nc(Nc2ccc(C(=O)N3CCOCC3)cc2)c2nccn2n1 [Example 1, 4-tert-Butyl-N-(2-methyl-3-(4-(4-(morpholine-4-carbonyl)phenylamino)imidazo[1,2-f][1,2,4]triazin-2-yl)phenyl)benzamide]

Source: patent US8476430B2, “Fused heterocyclic compounds useful as kinase modulators” (Bristol-Myers Squibb Company, priority 2008, dated 2013)
